This note sets out measurements from US10106582B2, “Complex-formation-modulating agents and uses therefor” (Factor Therapeutics Limited, priority 2012, dated 2018).

Experiment [1] deals with MCF-7 cells. Put plainly: Transwell migration assay, IGF-I+IGFBP-3+VN (TRI)-stimulated MCF-7 cell migration. The class given is cell-based, human. How it is done: FIG. 6 is a graphical representation showing MCF-7 cell migration in response to VN peptides. MCF-7 cells were seeded onto the upper-surface of a Transwell inserts coated on the under-surface with treatments containing IGF-I+IGFBP-3+VN (TRI; 10 nM) with or without increasing concentrations of either peptide P7, P8 or Pneg. Migration was assessed after 15 hours. Data is represented as percentage of change in migration compared to the TRI only control. Error bars indicate standard error mean.
This assay has been repeated three times with treatments tested in triplicate wells in each replicate experiment.
The breast cancer epithelial cell line MCF-7 was used for this assay. Migration was assessed by measuring relative number of cells migrating through 8-μm pore Transwell membranes in response to substrate-bond proteins complexes. IGFBP-3 was allowed to bind either peptide P7, P8 or a combination of P7 and P8 for 2 hours. IGF-I was later added to this protein mix which was then added to Transwells pre-coated with VN. Post-overnight incubation, unbound proteins were removed, Transwells washed twice and cells seeded onto the upper chamber. Cells migrated to the under-surface over 15 hours were indirectly quantified using crystal violet staining.

The test system of experiment [2] is MCF-7 cells. The experiment can be described thus: Transwell migration assay, IGF-I+IGFBP-5+VN trimeric complex-stimulated MCF-7 cell migration. In kind it is cell-based, human. The source says:
Two motifs (motifs 1 and 8) within native VN, deemed potentially significant in supporting the binding of IGF-II, IGFBP-3 and IGFBP-5, were identified as outlined in the previous section. After preliminary in silico analyses motif 8 (J4-7) was deemed as potentially the most significant region within native VN supporting binding interactions of all the three IGF-II, IGFBP-3 and IGFBP-5 proteins and was chosen for the initial analyses. The VN-peptide covering the sequences of motif 8 was designed such that it covered all the 3AA frameshift sets that contributed to a positive spot within the motif 8 (see, FIG. 3 and Table 7). The sequence of this peptide is RVNLRTRRVDTVDPPYPRS [SEQ ID NO:100] and is designated P8. […] The sequence of that peptide is […] [SEQ ID NO:86] and is designated P7. […] The functional effects of these peptides on IGF-I:IGFBP:VN-stimulated breast cancer cell migration were investigated using Transwell® assays. Transwells® were pre-bound with VN, either alone or in combination with IGF-I and IGFBP-5 (TRI). Treatment with TRI supplemented with increasing concentrations of peptides P7 and/or P8 were assayed. TRI supplemented with Anlg or Neg peptide were included as positive and negative controls of migration inhibition, respectively. All unbound proteins were removed with washing and MCF-7 cell migration was assessed over 15 hours.
The Transwell® inserts were prepared by pre-binding the lower chamber and the under-surface of the 8-μm pore membranes with proteins as described below. For all 2D functional assays described throughout this study, including Transwell® the treatments for the pre-binding steps were VN, IGF-I+IGFBP-5+VN (TRI) complex, either alone or in combination with respective controls or VN-peptides. The concentrations of the proteins added into the culture wells were VN, 1 μg/mL; IGF-I, 30 ng/mL and IGFBP-5, 90 ng/mL, unless otherwise stated. The concentration of VN-peptides used are indicated where appropriate.
Optimal IGF-I:IGFBP-5:VN-mediated attachment and migration of MCF-7 cells in multiwell plates is obtained by pre-binding human native-IGF-I and/or IGFBP-5 and VN at concentrations of 30 ng/mL, 90 ng/mL and 1 μg/mL per well, respectively, to the lower chambers and under surfaces of Transwells®. […] For Anlg, concentrations varying from 30 ng/mL to 300 ng/mL were used.
Transwells® were prepared by pre-binding the test proteins, either alone or in combinations, to the lower chambers and under-surfaces of Transwells® following procedures previously described (Kricker et al., 2003). Briefly, 0.5 mL DMEM/F12 serum-free phenol-red free medium (SFM) containing 1 μg/mL VN was added to the lower chambers of 24-well, 8-μm pore Transwell® plates and incubated for 3 hours at 37° C. Unbound VN was removed and the wells were washed twice with 0.5 mL SFM+0.5% BSA following which 0.5 mL of SFM+0.5% BSA was placed in the lower chamber to block surfaces with no protein bound. To pre-bind growth factors, 0.5 mL SFM+0.05% BSA containing native IGF-I (30 ng/mL), IGFBP-5 (90 ng/mL) or Anlg, either alone or in combination, were added to the lower chambers of the Transwells® and incubated overnight at 4° C. The solution containing unbound growth factors was removed and the wells were washed twice with SFM+0.05% BSA and replaced with 0.5 mL of SFM+0.05% BSA. Throughout the pre-binding procedure care was taken to keep the upper surface of the Transwell® inserts dry.
Migration assays were essentially performed following protocols described previously in Leavesley et al 1993, J Cell Biol. 121:163-70. The cells in culture flasks were split 1:1, 24 hours prior to performing the migration assay. The cells were serum-starved for 4 hours and a cell suspension containing 6×10^4 cells in 200 μL SFM+0.05% BSA was seeded onto the upper-surface of the pre-coated Transwell® inserts and incubated for 15 hours at 37° C., 5% CO2 (refer to above for proteins pre-bound and concentrations used). […]

Setting [3] is: increasing peptide concentrations added to TRI (IGF-I+IGFBP-3+VN; 10 nM), 15 hours.

With “KTYLFKGSQYWRFEDG [Neg, reference compound]”, the “Inhibition of TRI-stimulated MCF-7 cell migration” value in the experiment on MCF-7 cells [1] (setting [3]) is recorded as “no inhibition of cell migration was observed”. For the same sequence, the MCF-7 cell migration in the experiment with MCF-7 cells [2] (TRI supplemented with non-binding peptide, concentration not given, 15 hours) is recorded as 276±24 % of VN. Also, in the experiment with MCF-7 cells [2] (non-binding peptide supplemented into TRI, concentration not given), the “Effect on TRI-stimulated MCF-7 cell migration” value was “did not affect”.

Consider “LFSSEESNLGANNYDDYRMDWL (listed as Homo sapiens) [Peptide P7, human VN motif 7 mimic]”, for which the “Inhibition of TRI-stimulated MCF-7 cell migration” value was “returned to the ‘VN only’ treatment levels” in the experiment on MCF-7 cells [1] (30 nM peptide dose, TRI 10 nM, 15 hours (most significant inhibition)) and “dose dependent inhibition” in the experiment on MCF-7 cells [1] (setting [3]). Besides, the MCF-7 cell migration is 94.7±0.2 % of VN with MCF-7 cells [2] (TRI supplemented with peptide at 3× molar concentration of IGFBP-5 (43 ng/mL P7, 38 ng/mL P8), 15 hours) and 146±14 % of VN with MCF-7 cells [2] (TRI supplemented with peptide at 9× molar concentration of IGFBP-5, 15 hours).
